Peptide text beside a SMILES is read from it.
Assays:
Format in all cases: cell-based
[1] = tested on: human vascular endothelial cells and fibroblast cells (co-culture); experiment: Lumen formation with angiogenesis kit KZ-1000 (section 7); settings: day 11
Experimental: Using an angiogenesis kit available from KURABO […] LTD. (Product No.: KZ-1000), lumen formation by the polypeptides was evaluated. Vascular endothelial growth factor A (VEGF-A) as a positive control, and polypeptide-free, unstimulated group as a negative control, were used.
Using a special medium for angiogenesis which was attached to the kit, each polypeptide was prepared such that the concentration thereof was respectively 0.5, 2.5 and 10 μg/mL. To a 24-well plate in which cells were plated (the cells were those obtained by co-culturing human vascular endothelial cells and fibroblast cells at an optimum concentration) which was attached to the kit, the special medium for angiogenesis containing each polypeptide was added, and the cells were cultured at 37° C. under 5% CO2. The medium was replaced with a medium containing the same additive on day 4, day 7 and day 9 of culture. On day 11 from the beginning of the culture, staining was performed using a kit for staining lumina (for CD31 antibody staining) according to the following procedure.
The media were removed, and washing was performed with Dulbecco's phosphate buffered saline (PBS(−)). Thereafter, ice-cooled 70% ethanol was added to the plate, and the cells were fixed. Each well was washed with a blocking solution (Dulbecco's phosphate buffered saline (PBS(−)) containing 1% BSA). To each well, 0.5 mL of the primary antibody for CD31 staining (mouse anti-human CD31 antibody) 4000-fold diluted with the blocking solution was added, and then the plate was incubated for 60 minutes at 37° C. After the completion of the incubation, each well was washed totally 3 times with 1 mL of the blocking solution. Then, 0.5 mL of the secondary antibody solution (goat anti-mouse IgG/alkaline phosphatase conjugate) 500-fold diluted with the blocking solution was added to each well. The plate was incubated for 60 minutes at 37° C., and thereafter each well was washed 3 times with 1 mL of distilled water. During that period, 2 tablets of BCIP/NBT were dissolved into distilled water, and the obtained solution was filtered through a filter having a pore size of […] to prepare a substrate solution. To each well, 0.5 mL of the prepared BCIP/NBT substrate solution was added, and the plate was incubated at 37° C. until the lumina turned to deep purple (typically for 5-10 minutes). After the completion of the incubation, each well was washed 3 times with 1 mL of distilled water. After washing, the washing solution was removed by aspiration, and the plate was left to stand and dry naturally. After drying, photographs of each well were taken under a microscope.
Each of the obtained images was quantified using an angiogenesis quantification software. The area and length of formed lumina observed in each visual field were measured on the basis of the scale of an angiogenesis quantification software available from KURABO […] LTD. (angiogenesis quantification software Ver 1.0), and evaluated on the basis of the ratio of the area or length of polypeptide-containing groups relative to the area or length of the negative control group.

[2] = tested on: Staphylococcus aureus ATCC29213; experiment: Antibacterial activity, ATP assay (BacTiter-Glo); settings: 10 μg/mL, ATP assay
Experimental: (§1) The antibacterial activity of the polypeptides was measured using an ATP assay method. That is, using BacTiter-Glo Microbial Cell Viability Assay kit available from PROMEGA, the antibacterial activity of the peptides was evaluated from the viability of bacteria. […] With respect to the strains, Staphylococcus aureus ATCC29213 (S. aureus ATCC29213) as Gram-positive bacteria, or, alternatively, Pseudomonas aeruginosa (P. aeruginosa ATCC27853) as Gram-negative bacteria, was used. The bacteria were cultured in media for 3 to 4 hours, and thereafter absorbances at A600 were measured. Bacterial suspensions were diluted with Mueller-Hinton broth (MHB) according to McFarland #0.5. Each strain was added so as to attain about 0.5−1×10^5 CFU/mL (final concentration) in terms of Escherichia coli. […] A solution to which the peptides were not added was considered as a negative control, and a solution to which tobramycin (TOB) was added was considered as a positive control. […] Relative values were calculated by comparison with the negative control, and these values were regarded as the viability. ATP (%) of the antibacterial activity was measured in the same manner as mentioned above, and the “minimum inhibitory concentration (MIC)” was measured as follows. MIC is the lowest concentration of an agent that may inhibit the growth of a bacterium. MIC is used as a parameter for the efficacy of an antibacterial agent, for the strength of bacterial sensitivity, or the like. The bacteria can grow (proliferate) when the concentration is not higher than MIC, and cannot grow when the concentration is higher than MIC. Its measurement is carried out according to a method defined as a standard method by Japanese Society of Chemotherapy or CLINICAL AND LABORATORY […] (CLSI), but, in this Example, its measurement was carried out by a broth microdilution method in accordance with “M100-S17/M7-A7” (Performance Standards for Antimicrobial Susceptibility Testing; Seventeenth Informational Supplement, Vol. 27 No. 1) published by CLSI on January, 2007. That is, sensitivity test of agents was carried out using a microtiter plate or test tubes. With respect to each strain, Escherichia coli: ATCC 25922 (Escherichia coli ATCC 25922), Pseudomonas aeruginosa: ATCC 27853 (Pseudomonas aeruginosa ATCC 27853), Staphylococcus aureus: ATCC29213 (Staphylococcus aureus ATCC29213), Klebsiella pneumoniae: JCM 1662 (Klebsiella pneumoniae JCM 1662), enterobacteria (1): JCM 1232 (Enterobacter cloacae JCM 1232), enterobacteria (2): JCM 1235 (Enterobacter aerogenes JCM 1235), and Staphylococcus epidermidis: JCM 2414 (Staphylococcus epidermidis JCM 2414), were used. […] As the concentrations of the agents in ATP assay, the concentrations as described in the Tables were used.

[3] = tested on: Pseudomonas aeruginosa ATCC27853; experiment: Antibacterial activity, ATP assay (BacTiter-Glo); settings: Table 4-1; ATP assay concentration: peptides 10, TOB 1.0, CPFX 1.0, OX 0.5, MEPM 1.0 μg/ml
Experimental: as §1

[4] = tested on: Enterobacteria (2): Enterobacter aerogenes JCM 1235; experiment: Antibacterial activity, ATP assay (BacTiter-Glo); settings: ATP assay concentration: peptides 10, TOB 4.0, CPFX 1.0, OX 4.0, MEPM 8.0 μg/ml
Experimental: (§2) That is, using BacTiter-Glo Microbial Cell Viability Assay kit available from PROMEGA, the antibacterial activity of the peptides was evaluated from the viability of bacteria. […] With respect to the strains, Staphylococcus aureus ATCC29213 (S. aureus ATCC29213) as Gram-positive bacteria, or, alternatively, Pseudomonas aeruginosa (P. aeruginosa ATCC27853) as Gram-negative bacteria, was used. The bacteria were cultured in media for 3 to 4 hours, and thereafter absorbances at A600 were measured. Bacterial suspensions were diluted with Mueller-Hinton broth (MHB) according to McFarland #0.5. Each strain was added so as to attain about 0.5−1×10^5 CFU/mL (final concentration) in terms of Escherichia coli. […] A solution to which the peptides were not added was considered as a negative control, and a solution to which tobramycin (TOB) was added was considered as a positive control. […] Relative values were calculated by comparison with the negative control, and these values were regarded as the viability. […] ATP (%) of the antibacterial activity was measured in the same manner as mentioned above, and the “minimum inhibitory concentration (MIC)” was measured as follows. MIC is the lowest concentration of an agent that may inhibit the growth of a bacterium. MIC is used as a parameter for the efficacy of an antibacterial agent, for the strength of bacterial sensitivity, or the like. The bacteria can grow (proliferate) when the concentration is not higher than MIC, and cannot grow when the concentration is higher than MIC. Its measurement is carried out according to a method defined as a standard method by Japanese Society of Chemotherapy or CLINICAL AND LABORATORY […] (CLSI), but, in this Example, its measurement was carried out by a broth microdilution method in accordance with “M100-S17/M7-A7” (Performance Standards for Antimicrobial Susceptibility Testing; Seventeenth Informational Supplement, Vol. 27 No. 1) published by CLSI on January, 2007. That is, sensitivity test of agents was carried out using a microtiter plate or test tubes. With respect to each strain, Escherichia coli: ATCC 25922 (Escherichia coli ATCC 25922), Pseudomonas aeruginosa: ATCC 27853 (Pseudomonas aeruginosa ATCC 27853), Staphylococcus aureus: ATCC29213 (Staphylococcus aureus ATCC29213), Klebsiella pneumoniae: JCM 1662 (Klebsiella pneumoniae JCM 1662), enterobacteria (1): JCM 1232 (Enterobacter cloacae JCM 1232), enterobacteria (2): JCM 1235 (Enterobacter aerogenes JCM 1235), and Staphylococcus epidermidis: JCM 2414 (Staphylococcus epidermidis JCM 2414), were used. […] As the concentrations of the agents in ATP assay, the concentrations as described in the Tables were used.

[5] = tested on: Escherichia coli ATCC 25922; experiment: Antibacterial activity, ATP assay (BacTiter-Glo); settings: ATP assay concentration: peptides 10, TOB 1.0, CPFX 0.015, OX 0.5, MEPM 0.1 μg/ml
Experimental: as §2

[6] = tested on: Klebsiella pneumoniae JCM 1662; experiment: Antibacterial activity, ATP assay (BacTiter-Glo); settings: ATP assay concentration: peptides 10, TOB 4.0, CPFX 1.0, OX 0.5, MEPM 8.0 μg/ml
Experimental: as §2

[7] = tested on: Staphylococcus epidermidis JCM 2414; experiment: Antibacterial activity, ATP assay (BacTiter-Glo); settings: ATP assay concentration: peptides 10, TOB 1.0, CPFX 0.5, OX 0.5, MEPM 0.125 μg/ml
Experimental: as §2

[8] = VEGF-A positive control, concentration not given

## Vascular endothelial growth factor A [VEGF-A]
[1]; [8]
  The Area of Lumina (relative value, negative control as 100): 189.2
  The Length of Lumina (relative value, negative control as 100): 169.8

## CSCC[C@H](N)C(=O)N[C@@H](CCCNC(=N)N)C(=O)N[C@@H](CCCCN)C(=O)N[C@@H](CCCNC(=N)N)C(=O)N[C@@H](CC(C)C)C(=O)N[C@@H](CCCCN)C(=O)N[C@@H](CCCNC(=N)N)C(=O)N[C@@H](CCCCN)C(=O)N[C@@H](CC(C)C)C(=O)N[C@@H](CCCNC(=N)N)C(=O)N[C@@H](CC(C)C)C(=O)N[C@@H](Cc1c[nH]c2ccccc12)C(=O)N[C@@H](Cc1c[nH]cn1)C(=O)N[C@@H](CCCNC(=N)N)C(=O)N[C@@H](CCCCN)C(=O)N[C@@H](CCCNC(=N)N)C(=O)N[C@@H](Cc1ccc(O)cc1)C(=O)N[C@@H](CCCCN)C(N)=O [SR-6] (H-MRKRLKRKLRLWHRKRYK-NH2; N-terminus assumed)
[2]
  antibacterial activity against Staphylococcus aureus compared with AG30-5C: higher antibacterial activity against Staphylococcus aureus than AG30-5C
[1]; polypeptide 0.5 μg/mL
  The Area of Lumina (relative value, negative control as 100): 97.3
  The Length of Lumina (relative value, negative control as 100): 98.4
[1]; polypeptide 10 μg/mL
  The Area of Lumina (relative value, negative control as 100): 98.6
  The Length of Lumina (relative value, negative control as 100): 96.6

## O=C(O)c1cn(C2CC2)c2cc(N3CCNCC3)c(F)cc2c1=O [CPFX, ciprofloxacin, reference compound]
[3]
  ATP (%) mean, Pseudomonas aeruginosa: 2.3%
[4]
  ATP (%) mean, Enterobacteria (2): 3.2%
[5]
  ATP (%) mean, Escherichia coli: 15.4%
[6]
  ATP (%) mean, Klebsiella pneumoniae: 8.2%
[7]
  ATP (%) mean, Staphylococcus epidermidis: 7.3%
